The values that follow come from BindingDB's records for patent WO2022079616 (NOVARTIS AG, 2022).

SMILES strings stand for the structures. pIC50: −log10 of the molar value.

Test [1] addresses T1, Phosphatidylinositol 4-kinase (Cryptosporidium parvum (strain Iowa II), UniProt Q5CVD3).
T1 sequence (Q5CVD3 whole entry): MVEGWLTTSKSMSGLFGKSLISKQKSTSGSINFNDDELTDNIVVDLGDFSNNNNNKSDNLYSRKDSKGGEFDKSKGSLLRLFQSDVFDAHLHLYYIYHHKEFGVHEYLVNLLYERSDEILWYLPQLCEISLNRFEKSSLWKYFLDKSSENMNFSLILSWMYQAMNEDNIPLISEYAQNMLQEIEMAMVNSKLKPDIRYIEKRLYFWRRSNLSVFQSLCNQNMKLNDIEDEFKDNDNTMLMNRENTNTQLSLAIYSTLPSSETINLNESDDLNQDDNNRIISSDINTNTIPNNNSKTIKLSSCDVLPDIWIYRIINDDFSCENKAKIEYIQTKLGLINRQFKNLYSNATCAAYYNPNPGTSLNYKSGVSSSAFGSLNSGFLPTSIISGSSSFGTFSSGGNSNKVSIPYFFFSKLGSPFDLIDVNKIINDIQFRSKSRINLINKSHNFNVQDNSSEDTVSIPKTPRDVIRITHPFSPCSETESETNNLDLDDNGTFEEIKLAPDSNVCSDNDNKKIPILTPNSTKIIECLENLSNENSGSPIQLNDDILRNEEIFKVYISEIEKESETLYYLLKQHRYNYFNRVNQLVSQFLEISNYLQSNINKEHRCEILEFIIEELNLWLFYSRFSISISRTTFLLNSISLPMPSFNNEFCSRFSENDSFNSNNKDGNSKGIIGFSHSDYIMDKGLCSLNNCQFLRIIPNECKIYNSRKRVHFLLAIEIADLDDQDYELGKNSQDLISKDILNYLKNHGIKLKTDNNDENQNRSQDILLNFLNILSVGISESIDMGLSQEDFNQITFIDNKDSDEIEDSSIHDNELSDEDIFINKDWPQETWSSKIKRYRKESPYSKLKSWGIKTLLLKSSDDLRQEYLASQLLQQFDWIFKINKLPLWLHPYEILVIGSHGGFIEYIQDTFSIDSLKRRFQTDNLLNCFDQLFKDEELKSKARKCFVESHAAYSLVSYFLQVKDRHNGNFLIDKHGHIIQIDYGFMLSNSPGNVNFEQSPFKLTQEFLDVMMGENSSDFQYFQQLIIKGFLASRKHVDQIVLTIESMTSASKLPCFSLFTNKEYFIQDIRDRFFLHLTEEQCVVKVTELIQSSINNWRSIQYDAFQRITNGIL
Briefly: PI(4)K enzymatic Assay. From the text:
Baculovirus expression and purification of C. parvum phosphatidylinositol 4-kinase: The full-length coding sequence of C. parvum PI(4)K (cgd8_4500, 1114 amino acids) was codon-optimized for baculovirus expression, synthesized and cloned into pFastBac-HTb (Invitrogen 10584-027) in frame with the amino-terminal polyhistidine tag using the BamHI and HindIII restriction sites. Recombinant pFastBacHTb-CpPI(4)K bacmid clones were generated by site-specific transposition in E. coli DH10Bac (Invitrogen 10361-012). The bacmid sequence was confirmed by direct DNA sequencing to confirm a lack of mutations across the whole gene. The subsequent steps for bacmid isolation, transfection and selection of the recombinant viruses were performed according to the manufacturer s protocol (Bac-to-Bac system # 10359, Invitrogen).SF9 cells, cultured in SF-900 III serum-free medium, were transfected with recombinant baculovirus at 1/200 (v/v) and incubated at 27 °C for 72^h. The pellets were collected after centrifugation and re-suspended in cell lysis buffer (20^mM Tris-HCl, pH^7.5, 300^mM NaCl, 1mM DTT, 20mM imidazole, 0.01% Triton X-100 and 1×^complete protease inhibitor cocktail without EDTA (Roche Diagnostics 04693116001)). The cell suspension was lysed by sonication and the clarified supernatant was loaded onto a 1^ml HisTrap affinity column (GE Healthcare) pre-equilibrated with buffer A (20^mM Tris-HCl, pH^7.5, 300^mM NaCl, 1mM DTT, 20mM Imidazole, and 1×^complete protease inhibitor cocktail without EDTA). The column was washed with buffer B (buffer A containing 45 mM imidazole) and the bound protein of interest was eluted with buffer C (buffer A with 90^mM imidazole). The fractions containing CpPI(4)K were pooled, concentrated using Amicon Ultra-15 and purified by a gel-filtration column (Hi-Load 26/60 Superdex 200, GE Healthcare) equilibrated with 20^mM Tris, pH^7.5, 300^mM NaCl, 1^mM DTT and 1×^protease inhibitor cocktail without EDTA. The concentrations of the purified protein (Mw 132.39 kda) was determined by using the protein molar extinction coefficient (ε280^nm = 133,810^M−1^cm−1). Aliquots were flash frozen in liquid nitrogen and immediately stored at −80 °C.PI(4)K enzymatic Assay: The CpPI(4)K enzymatic assay was performed as described earlier with a some modifications (McNamara et al., 2013). Briefly, L-α-phosphatidylinositol (Avanti Polar Lipid 840046), dissolved in 3% n-octylglucoside (Roche Diagnostics 10634425001), was used as the lipid substrate for the PI(4)K activity assay. CpPI(4)K was assayed using Transcreener ADP2 FP detection kit (BellBrook 3010) in a black, solid 384-well plate (Corning 3575). The final assay volume was 10^μl and contained 3^nM of the respective CpPI(4)K construct in 10^mM Tris, pH^7.5, 1^mM DTT, 3^μM ATP, 5^mM Mn2+, 0.05% Triton X-100 and 10^μM phosphatidylinositol/octylglucoside. The enzyme reaction was performed for 50 minutes at room temperature and was stopped by adding 10^μl of detection mix containing 1×^stop buffer (50mM HEPES, pH7.5, 400mM NaCl, 20mM EDTA, and 0.02% Brij-35), 2^nM AMP Alexa Fluor 633 tracer, and 20^μg^ml−1 ADP antibody. Fluorescence polarization measurements were performed on the Infinite M1000 plate reader (Tecan) with λex = 635^nm and λem = 680^nm (20-nm bandwidth). IC50 values were calculated using Graphpad Prism software.

Test [2] addresses PI3K/PI4K catalytic domain-containing protein (Cryptosporidium hominis, UniProt A0A0S4TH36).

PI3K/PI4K catalytic domain-containing protein, sequence (A0A0S4TH36 whole entry, the tested form may be a part): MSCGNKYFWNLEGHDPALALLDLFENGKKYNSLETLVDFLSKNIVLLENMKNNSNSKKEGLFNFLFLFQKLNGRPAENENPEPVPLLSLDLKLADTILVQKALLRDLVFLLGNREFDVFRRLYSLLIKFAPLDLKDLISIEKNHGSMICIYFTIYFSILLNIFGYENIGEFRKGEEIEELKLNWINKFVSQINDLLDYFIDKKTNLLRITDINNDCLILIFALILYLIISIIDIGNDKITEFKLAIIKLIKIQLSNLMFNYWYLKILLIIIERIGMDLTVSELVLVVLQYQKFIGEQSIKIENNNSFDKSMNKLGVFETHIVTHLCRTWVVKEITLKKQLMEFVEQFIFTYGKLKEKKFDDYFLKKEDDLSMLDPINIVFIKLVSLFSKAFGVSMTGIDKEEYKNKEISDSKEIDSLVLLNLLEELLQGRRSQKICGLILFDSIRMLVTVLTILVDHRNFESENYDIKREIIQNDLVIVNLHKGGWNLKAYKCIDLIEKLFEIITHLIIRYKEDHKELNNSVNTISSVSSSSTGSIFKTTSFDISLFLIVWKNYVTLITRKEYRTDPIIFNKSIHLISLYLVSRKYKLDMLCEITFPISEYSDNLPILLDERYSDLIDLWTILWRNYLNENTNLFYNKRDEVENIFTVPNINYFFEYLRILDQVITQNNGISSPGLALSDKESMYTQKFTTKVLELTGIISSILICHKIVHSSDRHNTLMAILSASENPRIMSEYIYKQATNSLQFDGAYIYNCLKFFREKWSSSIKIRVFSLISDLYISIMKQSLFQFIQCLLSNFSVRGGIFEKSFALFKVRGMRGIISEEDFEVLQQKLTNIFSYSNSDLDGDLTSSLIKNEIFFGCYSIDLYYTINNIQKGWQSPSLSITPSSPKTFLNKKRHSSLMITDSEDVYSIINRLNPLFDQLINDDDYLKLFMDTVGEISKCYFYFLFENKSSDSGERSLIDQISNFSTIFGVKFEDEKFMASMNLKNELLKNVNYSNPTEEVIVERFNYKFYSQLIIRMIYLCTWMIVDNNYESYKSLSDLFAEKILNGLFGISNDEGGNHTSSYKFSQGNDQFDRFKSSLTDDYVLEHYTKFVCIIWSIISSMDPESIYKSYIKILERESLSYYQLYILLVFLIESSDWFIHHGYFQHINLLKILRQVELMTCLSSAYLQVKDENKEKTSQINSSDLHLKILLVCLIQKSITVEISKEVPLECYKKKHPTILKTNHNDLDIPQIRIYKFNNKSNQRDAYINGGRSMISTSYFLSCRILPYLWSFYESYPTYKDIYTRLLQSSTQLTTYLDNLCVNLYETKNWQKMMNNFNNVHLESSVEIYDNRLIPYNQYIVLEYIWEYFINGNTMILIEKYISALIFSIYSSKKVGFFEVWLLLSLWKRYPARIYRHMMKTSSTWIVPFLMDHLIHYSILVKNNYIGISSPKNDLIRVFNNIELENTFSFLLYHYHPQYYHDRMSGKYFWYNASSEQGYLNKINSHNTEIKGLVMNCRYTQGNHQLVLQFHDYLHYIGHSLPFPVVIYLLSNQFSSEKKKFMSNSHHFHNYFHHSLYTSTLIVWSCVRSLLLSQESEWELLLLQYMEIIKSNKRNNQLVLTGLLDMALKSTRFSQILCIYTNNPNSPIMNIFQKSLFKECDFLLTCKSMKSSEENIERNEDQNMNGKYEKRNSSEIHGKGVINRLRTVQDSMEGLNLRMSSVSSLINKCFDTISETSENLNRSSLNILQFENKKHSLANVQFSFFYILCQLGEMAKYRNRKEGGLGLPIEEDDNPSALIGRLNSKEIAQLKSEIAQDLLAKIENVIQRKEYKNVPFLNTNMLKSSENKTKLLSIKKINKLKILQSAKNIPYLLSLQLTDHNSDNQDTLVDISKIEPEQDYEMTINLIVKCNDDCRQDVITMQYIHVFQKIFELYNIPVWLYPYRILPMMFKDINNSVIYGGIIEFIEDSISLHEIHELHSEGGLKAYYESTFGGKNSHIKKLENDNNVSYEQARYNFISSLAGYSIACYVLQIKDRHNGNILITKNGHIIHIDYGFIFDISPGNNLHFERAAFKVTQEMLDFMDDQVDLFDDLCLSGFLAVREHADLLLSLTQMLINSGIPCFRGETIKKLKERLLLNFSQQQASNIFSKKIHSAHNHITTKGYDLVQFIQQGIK

As for `CNC(=O)c1ccc(-c2cnn3ccc(C(=O)Nc4ccc(Cl)c(C(=O)OC)c4)cc23)cc1` [WO2022079616, Example 1.24], the pIC50 in test [1] and in test [2] was less than 6.00 throughout.
With `CNC(=O)c1ccc(-c2cnn3ccc(C(=O)N(C)c4ccc(Cl)c(C(=O)OC)c4)cc23)cc1` [WO2022079616, Example 1.16], the pIC50 in test [1] was greater than 7.00; in test [2], 6.26.
As to `CCOC(=O)c1cc(N(C)C(=O)c2ccn3ncc(-c4ccc(C(N)=O)cc4)c3c2)ccc1Cl` [WO2022079616, Example 1.09], the pIC50 in test [1] was greater than 7.00.
For `CSCCOC(=O)c1cc(N(C)C(=O)c2ccn3ncc(-c4ccc(C(N)=O)cc4)c3c2)ccc1Cl` [WO2022079616, Example 1.04], in test [1], the pIC50 was greater than 7.00.
With `COC(=O)c1cc(N(C)C(=O)c2ccn3ncc(-c4ccc(C(N)=O)cc4)c3c2)ccc1OC(F)(F)F` [WO2022079616, Example 1.25], the pIC50 in test [1] is greater than 7.00; in test [2], less than 6.00.
In test [1], `CNC(=O)c1ccc(-c2cnn3ccc(C(=O)N(C)c4ccc(Cl)c(C(=O)OC(C)(C)C)c4)cc23)cc1` [WO2022079616, Example 1.17] had a pIC50 greater than 7.00.
With `CNC(=O)c1ccc(-c2cnn3ccc(C(=O)N(C)c4ccc(Cl)c(C(=O)OC)c4)cc23)cc1C` [WO2022079616, Example 1.22], the pIC50 was 6.26 in test [1] and less than 6.00 in test [2].
On to `CN(C)C(=O)COC(=O)c1cc(N(C)C(=O)c2ccn3ncc(-c4ccc(C(N)=O)cc4)c3c2)ccc1Cl` [WO2022079616, Example 1.12], for which the pIC50 in test [1] was greater than 7.00.
Turning to `CCOC(=O)OC(C)OC(=O)c1cc(N(C)C(=O)c2ccn3ncc(-c4ccc(C(N)=O)cc4)c3c2)ccc1Cl` (racemic) [WO2022079616, Example 1.14], the figures for the pIC50 in test [1] and in test [2] were 6.26 and less than 6.00, respectively.
Take `COC(=O)c1cc(N(C)C(=O)c2ccn3ncc(-c4ccc(C(N)=O)cc4C)c3c2)ccc1Cl` [WO2022079616, Example 1.21]: the pIC50 in test [1] was greater than 7.00; in test [2], less than 6.00.
In test [1], `CN(C(=O)c1ccn2ncc(-c3ccc(C(N)=O)cc3)c2c1)c1ccc(Cl)c(C(=O)OCC2CCCO2)c1` (racemic) [WO2022079616, Example 1.15] showed a pIC50 greater than 7.00.
As for `CN(C(=O)c1ccn2ncc(-c3ccc(C(N)=O)cc3)c2c1)c1ccc(Cl)c(C(=O)OCCN2CCOCC2)c1` [WO2022079616, Example 1.08], the pIC50 in test [1] is greater than 7.00; in test [2], less than 6.00.
Regarding `COC(=O)c1cc(Cl)ccc1N(C)C(=O)c1ccn2ncc(-c3ccc(C(N)=O)cc3)c2c1` [WO2022079616, Example 4.1], the results for the pIC50 in test [1] and in test [2] were greater than 7.00 and 6.26, respectively.
Molecule `CN(C(=O)c1ccn2ncc(-c3ccc(C(N)=O)cc3)c2c1)c1ccc(Cl)c(C(=O)OC(C)(C)C)c1` [WO2022079616, Example 1.02] had a pIC50 in test [1] greater than 7.00.
For `COC(=O)COC(=O)c1cc(N(C)C(=O)c2ccn3ncc(-c4ccc(C(N)=O)cc4)c3c2)ccc1Cl` [WO2022079616, Example 1.06], the pIC50 in test [1] is greater than 7.00.
As to `CNC(=O)c1ccc(-c2cnn3ccc(C(=O)N(C)c4ccc(OC(F)(F)F)c(C(=O)OC)c4)cc23)cc1` [WO2022079616, Example 1.26], the pIC50 in test [1] is greater than 7.00.
Still for that read-out and setting: to `CN(C(=O)c1ccn2ncc(-c3ccc(C(N)=O)cc3)c2c1)c1ccc(Cl)c(C(=O)O)c1` [WO2022079616, Example 1.03] belongs greater than 7.00; to `CC(C)OC(=O)c1cc(N(C)C(=O)c2ccn3ncc(-c4ccc(C(N)=O)cc4)c3c2)ccc1Cl` [WO2022079616, Example 1.13], greater than 7.00.
Turning to `CNC(=O)c1ccc(-c2cnn3ccc(C(=O)N(C)c4ccc(Cl)c(C(=O)OCCN5CCOCC5)c4)cc23)cc1` [WO2022079616, Example 1.19], the pIC50 was greater than 7.00 in test [1] and 6.26 in test [2].
On the same counts, the results for `CNC(=O)c1ccc(-c2cnc3cnc(C(=O)N(C)c4ccc(Cl)c(C(=O)OC)c4)cn23)cc1` [WO2022079616, Example 2.1] are greater than 7.00 and less than 6.00.
Consider `CC(C)COC(=O)c1cc(N(C)C(=O)c2ccn3ncc(-c4ccc(C(N)=O)cc4)c3c2)ccc1Cl` [WO2022079616, Example 1.05], for which, in test [1], the pIC50 was greater than 7.00.
Consider `COC(=O)c1cc(N(C)C(=O)c2ccn3ncc(-c4ccc(C(N)=O)cc4)c3c2)ccc1C#N` [WO2022079616, Example 1.27], for which the pIC50 in test [1] is 6.26; in test [2] it was less than 6.00.
In turn, `CN(C(=O)c1ccn2ncc(-c3ccc(C(N)=O)cc3)c2c1)c1ccc(Cl)c(C(=O)OCC(F)(F)F)c1` [WO2022079616, Example 1.10] gave a negative logarithm of the IC50 (pIC50) in test [1] greater than 7.00.
Take `CNC(=O)c1ccc(-c2cnn3ccc(C(=O)N(C)c4ccc(Cl)c(C(=O)O)c4)cc23)cc1` [WO2022079616, Example 1.18]: the pIC50 in test [1] was greater than 7.00; in test [2], 6.26.
Molecule `COCCOC(=O)c1cc(N(C)C(=O)c2ccn3ncc(-c4ccc(C(N)=O)cc4)c3c2)ccc1Cl` [WO2022079616, Example 1.11] showed a pIC50 in test [1] greater than 7.00.
For `COC(=O)c1cc(NC(=O)c2ccn3ncc(-c4ccc(C(N)=O)cc4)c3c2)ccc1Cl` [WO2022079616, Example 1.23], the pIC50 in test [1] and in test [2] was less than 6.00 each time.
Consider `CNC(=O)c1ccc(-c2cnn3cnc(C(=O)N(C)c4ccc(Cl)c(C(=O)OC)c4)cc23)cc1` [WO2022079616, Example 3.1], for which the pIC50 in test [1] was greater than 7.00; in test [2], less than 6.00.

As a reminder, the pIC50 is the IC50 on a negative log10 scale, so that one unit is a factor of ten. Higher therefore signals a small IC50.
